Results as given in patent publication US20040147527A1, “Methods of use of gemifloxacin compounds against fluoroquinolone resistant Streptococcus pneumoniae bacteria” (priority 1999, published 2004).
In brackets after ≈: the same amount, converted by molar mass.

What was measured:
[1] = system: S. pneumoniae with reduced susceptibility to CIP; test: MIC by NCCLS microbroth dilution, 80 clinical isolates with CIP MIC ≧2 μg/ml; type: cell-based; conditions: Streptococcus pneumoniae
Procedure: Topoisomerase IV (parC) and DNA gyrase (gyrA) mutations were confirmed by sequencing the QRDR region of each gene. Serotyping and PFGE were performed on all isolates. […] Breakpoints have not been established for all fluoroquinolones, thus percentage resistance was not calculated.

[2] = system: S. pneumoniae (CFX and TFX susceptible and resistant clinical isolates); test: Postantibiotic effect (PAE), viable colony counting technique; type: cell-based, Streptococcus pneumoniae
Procedure: This invention was based, in part, on analyses evaluating the comparative activity of gemifloxacin against various strains of S. pneumoniae. An objective of these analyses was to determine the postantibiotic effect (herein “PAE”) of GFX in CFX and TFX susceptible and resistant S. pneumoniae.
CFX resistant clinical isolates of S. pneumoniae were collected from across Canada. MICs were determined using a microbroth dilution technique described by the NCCLS. Topisomerase IV (parC) and DNA gyrase (gyrA) mutations were confirmed by sequencing the QRDR region of each gene. Two fluoroquinolone susceptible and 8 resistant isolates (3 CFX resistant. 5 CFX, TFX resistant) were selected for study. […] Antibiotics were removed using dilution into sterile media and the PAE assessed using a viable colony counting technique.

| Compound | MIC [1] | MIC50 [1] | MIC90 [1] | mean PAE ([2]; TFX susceptible isolates, 4× MIC for 2 hours) | mean PAE ([2]; TFX susceptible isolates, 10× MIC for 2 hours) | mean PAE ([2]; GFX, 4× MIC for 2 hours) | mean PAE ([2]; GFX, 10× MIC for 2 hours) | difference in duration of PAE between CFX or TFX susceptible and resistant strains ([2]; p<0.05) |
| --- | --- | --- | --- | --- | --- | --- | --- | --- |
| Cc1c(F)c(N2CCNC(C)C2)cc2c1c(=O)c(C(=O)O)cn2C1CC1 (centres unmarked) [GRE, grepafloxacin] | 0.12 to 8 µg/mL (≈ 0.334 to 22.3 µM) | 0.5 µg/mL (≈ 1.39 µM) | 8 µg/mL (≈ 22.3 µM) | – | – | – | – | – |
| COc1c(N2CCNC(C)C2)c(F)cc2c(=O)c(C(=O)O)cn(C3CC3)c12 (centres unmarked) [GAT, gatifloxacin] | 0.25 to 8 µg/mL (≈ 0.666 to 21.3 µM) | 0.5 µg/mL (≈ 1.33 µM) | 4 µg/mL (≈ 10.7 µM) | – | – | – | – | – |
| CO/N=C1\CN(c2nc3c(cc2F)c(=O)c(C(=O)O)cn3C2CC2)CC1CN (racemic) [GFX, (R,S)-7-(3-aminomethyl-4-methoxyiminopyrrolidin-1-yl)-1-cyclopropyl-6-fluoro-4-oxo-1,4-dihydro-1,8-naphthyridine-3-carboxylic acid] | 0.03 to 5 µg/mL (≈ 0.077 to 12.8 µM) | 0.06 µg/mL (≈ 0.154 µM) | 0.25 µg/mL (≈ 0.642 µM) | – | – | 2.7 h | 3.8 h | no significant difference |

Further lines, with some results ahead:

| MIC [1] | MIC50 [1] | MIC90 [1] | Compound | mean PAE ([2]; TFX susceptible isolates, 4× MIC for 2 hours) | mean PAE ([2]; TFX susceptible isolates, 10× MIC for 2 hours) | mean PAE ([2]; GFX, 4× MIC for 2 hours) | mean PAE ([2]; GFX, 10× MIC for 2 hours) | difference in duration of PAE between CFX or TFX susceptible and resistant strains ([2]; p<0.05) |
| --- | --- | --- | --- | --- | --- | --- | --- | --- |
| 1 to 32 µg/mL (≈ 2.77 to 88.6 µM) | 2 µg/mL (≈ 5.53 µM) | 16 µg/mL (≈ 44.3 µM) | C[C@H]1COc2c(N3CCN(C)CC3)c(F)cc3c(=O)c(C(=O)O)cn1c23 [LEV, levofloxacin] | – | – | – | – | – |
| 0.06 to 8 µg/mL (≈ 0.144 to 19.2 µM) | 0.5 µg/mL (≈ 1.2 µM) | 4 µg/mL (≈ 9.61 µM) | N[C@@H]1[C@H]2CN(c3nc4c(cc3F)c(=O)c(C(=O)O)cn4-c3ccc(F)cc3F)C[C@@H]12 [TFX, trovafloxacin] | 2.1 h | 3.2 h | – | – | – |
| 0.25 to 32 µg/mL (≈ 0.637 to 81.5 µM) | 0.5 µg/mL (≈ 1.27 µM) | 16 µg/mL (≈ 40.8 µM) | C[C@@H]1CN(c2c(F)c(N)c3c(=O)c(C(=O)O)cn(C4CC4)c3c2F)C[C@H](C)N1 [SPA, sparfloxacin] | – | – | – | – | – |
| 0.12 to 4 µg/mL (≈ 0.299 to 9.96 µM) | 0.25 µg/mL (≈ 0.623 µM) | 2 µg/mL (≈ 4.98 µM) | COc1c(N2C[C@@H]3CCCN[C@@H]3C2)c(F)cc2c(=O)c(C(=O)O)cn(C3CC3)c12 [MOX, moxifloxacin] | – | – | – | – | – |
